Data published in ChEMBL document CHEMBL5385914 (J Med Chem, 2024).
Activity calls are given as the source filed them. No cut-off for these calls is given here.

Columns and labels:
Tubulin [1] = target: Tubulin (Bos taurus, UniProt Q6B856+Q862L2+Q862F3); experiment: Displacement of fluorescent probe (R)-(+)-ethyl 5-amino2-methyl-1,2-dihydro-3-phenylpyrido[3,4-b]pyrazin-7-ylcarbamate from calf brain tubulin colchicine binding site assessed as dissociation constant at 0.05 to 70 uM incubated for 30 mins by fluorescence based assay
A549 [2] = experiment: cells; conditions: Homo sapiens, A549, 48 h
A2780 [3] = experiment: cells; conditions: Homo sapiens, A2780, 48 h
cells = conditions: Homo sapiens, A2780AD, 48 h
HeLa [4] = experiment: cells; conditions: Homo sapiens, 48 h
HeLa [5] = experiment: cells; conditions: Homo sapiens, 48 h; remark: listed apart in the source
A2780 [6] = experiment: Antiproliferative activity against human A2780 cells assessed as inhibition of cell growth; type: functional, cell-based
[7] = Antiproliferative activity against human A2780AD cells overexpressing P-gp assessed as inhibition of cell growth; type: functional, cell-based
Tubulin [8] = experiment: Displacement of fluorescent probe (R)-(+)-ethyl 5-amino2-methyl-1,2-dihydro-3-phenylpyrido[3,4-b]pyrazin-7-ylcarbamate from tubulin colchicine binding site (unknown origin) assessed as dissociation constant; type: protein-complex assay, Homo sapiens
Tubulin (Bos taurus) [9] = target: T1, Tubulin (Bos taurus) (UniProt Q6B856+Q862L2+Q862F3); experiment: Binding affinity to calf brain tubulin colchicine binding site assessed as Koff at 3 uM incubated for 30 mins by fluorescence based photon-counting instrument
A549 [10] = experiment: cells; conditions: Homo sapiens
Description: Antiproliferative activity against human A549 cells assessed as inhibition of cell growth

HeLa [11] = experiment: cells; conditions: Homo sapiens
Description: Antiproliferative activity against human HeLa cells assessed as inhibition of cell growth

HeLa [12] = experiment: cells; conditions: Homo sapiens; remark: listed apart in the source
Description: Antiproliferative activity against human HeLa cells expressing tubulin betaIII assessed as inhibition of cell growth

NCI-H460 [13] = experiment: Antitumor activity against human NCI-H460 cells xenografted in athymic nu/nu mouse assessed as reduction in tumor size at 1.1 to 2.5 mg/kg, iv administered once a week for 2 weeks by digital caliper based analysis; type: functional, organism-based; conditions: dose 1.1-2.5 mg/kg
[14] = Inhibition of human recombinant alpha1beta3 tubulin expressed in Sf9 insect cells at 5 to 27.5 uM incubated for 70 mins by […]; conditions: dose 5-27.5 µM
NCI-H460 [15] = experiment: Antitumor activity against human NCI-H460 cells xenografted in athymic nu/nu mouse assessed as increase in apoptosis by measuring number of apoptotic nuclei in tumor at 2.5 mg/kg, iv administered once a week for 2 weeks and measured 24 hrs post last dose by Hoechst 33258 staining based fluorescence microscopic analysis (reference value: 1 +/- 0.1); type: functional; conditions: time 15 day
NCI-H460 [16] = experiment: Antitumor activity against human NCI-H460 cells xenografted in athymic nu/nu mouse assessed as reduction in tumor size at 0.75 mg/kg, iv administered once a week for 2 weeks by digital caliper based analysis; type: functional, organism-based
NCI-H460 [17] = experiment: Antitumor activity against human NCI-H460 cells xenografted in iv dosed athymic nu/nu mouse assessed as reduction in tumor volume administered once a week for 2 weeks and measured 2 to 3 times per week by digital caliper based analysis; type: functional, organism-based; conditions: dose 0.25-2.5 mg/kg
NCI-H460 [18] = experiment: Antitumor activity against human NCI-H460 cells xenografted in athymic nu/nu mouse assessed as median tumor volume at 0.75 mg/kg, iv measured on day 7 by digital caliper based analysis; type: functional; conditions: time 7 day
NCI-H460 [19] = experiment: Antitumor activity against human NCI-H460 cells xenografted in athymic nu/nu mouse assessed as median tumor volume at 1.1 mg/kg, iv measured on day 7 by digital caliper based analysis; type: functional; conditions: time 7 day
NCI-H460 [20] = experiment: Antitumor activity against human NCI-H460 cells xenografted in athymic nu/nu mouse assessed as median tumor volume at 1.7 mg/kg, iv measured on day 7 by digital caliper based analysis; type: functional; conditions: time 7 day
NCI-H460 [21] = experiment: Antitumor activity against human NCI-H460 cells xenografted in athymic nu/nu mouse assessed as median tumor volume at 2.5 mg/kg, iv measured on day 7 by digital caliper based analysis; type: functional; conditions: time 7 day
NCI-H460 [22] = experiment: Antitumor activity against human NCI-H460 cells xenografted in athymic nu/nu mouse assessed as increase in survival time at 1.1 to 2.5 mg/kg, iv administered once a week for 2 weeks; type: functional, organism-based; conditions: dose 1.1-2.5 mg/kg
NCI-H460 [23] = experiment: Antitumor activity against human NCI-H460 cells xenografted in athymic nu/nu mouse assessed as increase in survival time at 0.75 mg/kg, iv administered once a week for 2 weeks; type: functional, organism-based
NCI-H460 [24] = experiment: Antitumor activity against human NCI-H460 cells xenografted in athymic nu/nu mouse assessed as mean survival time at 0.75 mg/kg, iv administered once a week for 2 weeks; type: functional
NCI-H460 [25] = experiment: Antitumor activity against human NCI-H460 cells xenografted in athymic nu/nu mouse assessed as mean survival time at 1.1 mg/kg, iv administered once a week for 2 weeks; type: functional
NCI-H460 [26] = experiment: Antitumor activity against human NCI-H460 cells xenografted in athymic nu/nu mouse assessed as mean survival time at 1.7 mg/kg, iv administered once a week for 2 weeks; type: functional
NCI-H460 [27] = experiment: Antitumor activity against human NCI-H460 cells xenografted in athymic nu/nu mouse assessed as mean survival time at 2.5 mg/kg, iv administered once a week for 2 weeks; type: functional
[28] = Toxicity in athymic nu/nu mouse xenografted with human NCI-H460 cells assessed as clinical signs of systemic toxicity at 2.5 mg/kg, iv administered once a week for 2 weeks; type: organism-based; conditions: in vivo, 336 h
[29] = Toxicity in athymic nu/nu mouse xenografted with human NCI-H460 cells assessed as reduction in body weight at 2.5 mg/kg, iv measured on day 2; type: organism-based; parameters: scale not given: the % may be the effect or the level left; conditions: in vivo, 48 h, time 2 day
[30] = Toxicity in athymic nu/nu mouse xenografted with human NCI-H460 cells assessed as reduction in body weight at 2.5 mg/kg, iv measured on day 5; type: organism-based; parameters: scale not given: the % may be the effect or the level left; conditions: in vivo, 120 h, time 5 day
[31] = Toxicity in athymic nu/nu mouse xenografted with human NCI-H460 cells assessed as reduction in body weight at 2.5 mg/kg, iv measured on day 7; type: organism-based; parameters: scale not given: the % may be the effect or the level left; conditions: in vivo, 168 h, time 7 day
Tubulin (Bos taurus) [32] = target: T1, Tubulin (Bos taurus); experiment: Inhibition of calf brain tubulin assembly measured upto 100 mins; conditions: dose 0.625-5 µM
Tubulin (Bos taurus) [33] = target: T1, Tubulin (Bos taurus); experiment: Displacement of 2-methoxy-5-(2,3,4-trimethoxyphenyl)-2,4,6-cycloheptatriene-1-one from calf brain tubulin colchicine site
Tubulin (Homo sapiens) [34] = target: T2, Tubulin (Homo sapiens) (UniProt P68371+Q9H4B7+P0DPH7+P68366+Q13509+Q71U36+P04350+Q3ZCM7+P07437+P68363+Q9BQE3+Q6PEY2+Q13885+Q9BVA1+Q9BUF5); experiment: Disruption of microtubule network in human A549 cells assessed as disorganization of tubulin cytoskeleton during interphase incubated for 24 hrs by immunofluorescence staining based epifluorescence microscopic analysis; type: cell-based
Tubulin (Homo sapiens) [35] = target: T2, Tubulin (Homo sapiens); experiment: Disruption of microtubule network in human A549 cells assessed as reduction in number and length of microtubules incubated for 24 hrs by immunofluorescence staining based epifluorescence microscopic analysis; type: cell-based
Tubulin (Homo sapiens) [36] = target: T2, Tubulin (Homo sapiens); experiment: Disruption of microtubule network in human A549 cells assessed as reduction in mitotic spindle formation incubated for 24 hrs by immunofluorescence staining based epifluorescence microscopic analysis; type: cell-based
Tubulin (Homo sapiens) [37] = target: T2, Tubulin (Homo sapiens); experiment: Disruption of microtubule network in human A549 cells assessed as appearance of aberrant chromosome distribution incubated for 24 hrs by immunofluorescence staining based epifluorescence microscopic analysis; type: cell-based
Tubulin (Homo sapiens) [38] = target: T2, Tubulin (Homo sapiens); experiment: Disruption of microtubule network in human A549 cells assessed as appearance of cellular phenotype with hypercondensed chromatin incubated for 24 hrs by immunofluorescence staining based epifluorescence microscopic analysis; type: cell-based
Tubulin (Homo sapiens) [39] = target: T2, Tubulin (Homo sapiens); experiment: Disruption of microtubule network in human A549 cells assessed as induction of cellular landscape at 1 nM incubated for 24 hrs by immunofluorescence staining based epifluorescence microscopic analysis; type: cell-based
Tubulin (Homo sapiens) [40] = target: T2, Tubulin (Homo sapiens)

## CCC[C@@H](NC(=O)[C@]1(C)CSC(/C(C)=N/O)=N1)c1cc(OC)cc(=O)o1
Tubulin [1]
  Kd: 0.96 µM
A549 [2]
  IC50: 0.023 µM
A2780 [3]
  IC50: 0.022 µM
cells
  IC50: 0.054 µM
HeLa [4]
  IC50: 0.019 µM
HeLa [5]
  IC50: 0.028 µM

## COCc1cc2cccc(NC(C)=C3C(=O)CC(c4ccccc4)CC3=O)c2o1 (stereo not given)
A2780 [6]
  IC50: 0.023 µM
[7]
  IC50: 0.039 µM
Tubulin [8]
  Kd: 0.003 µM

## COc1ccc(-c2ccc(OC)c(=O)cc2)c(OC)c1OC
Tubulin (Bos taurus) [9]
  K: 6 s⁻¹

## CC(=O)O[C@H]1C(=O)[C@@]2(C)[C@H]([C@H](OC(=O)c3ccccc3)[C@]3(O)C[C@H](OC(=O)[C@H](O)[C@@H](NC(=O)c4ccccc4)c4ccccc4)C(C)=C1C3(C)C)[C@]1(OC(C)=O)CO[C@@H]1C[C@@H]2O [PACLITAXEL]
cells
  IC50: 0.392 µM
HeLa [4]
  IC50: 0.0011 µM
HeLa [5]
  IC50: 0.02 µM

## COc1cc2c(c(OC)c1OC)-c1ccc(OC)c(=O)cc1[C@@H](NC(C)=O)CC2 [COLCHICINE]
[7]
  IC50: 0.537 µM
A549 [10]
  IC50: 0.049 µM
HeLa [11]
  IC50: 0.011 µM
HeLa [12]
  IC50: 0.019 µM

## CCC[C@@H](NC(=O)[C@]1(C)CSC(/C(C)=N/O)=N1)c1cc(OCC2CC2)cc(=O)o1
NCI-H460 [13]
  Activity: Active
[14]
  inhibition: Active
NCI-H460 [15]
  Activity: 10
NCI-H460 [16]
  Activity: inactive
NCI-H460 [17]
  Activity: Dose-Dependent Effect
NCI-H460 [18]
  Activity: 1395 mm3
NCI-H460 [19]
  Activity: 947.3 mm3
NCI-H460 [20]
  Activity: 580 mm3
NCI-H460 [21]
  Activity: 260.4 mm3
NCI-H460 [22]
  Activity: Active
NCI-H460 [23]
  Activity: inactive
NCI-H460 [24]
  MST: 10.5 days
NCI-H460 [25]
  MST: 16 days
NCI-H460 [26]
  MST: 20 days
NCI-H460 [27]
  MST: 21 days
[28]
  Activity: Non-Toxic
[29]
  Activity: 11.2%
[30]
  Activity: -4.5%
[31]
  Activity: -2.9%
Tubulin (Bos taurus) [32]
  inhibition: Dose-Dependent Effect
Tubulin (Bos taurus) [33]
  Activity: 100%
Tubulin [1]
  Kd: 0.02 µM
Tubulin (Homo sapiens) [34]
  Activity: Active
Tubulin (Homo sapiens) [35]
  Activity: Active
Tubulin (Homo sapiens) [36]
  Activity: Active
Tubulin (Homo sapiens) [37]
  Activity: Active
Tubulin (Homo sapiens) [38]
  Activity: Active
Tubulin (Homo sapiens) [39]
  Activity: Active
A549 [2]
  IC50: 0.0015 µM
A2780 [3]
  IC50: 0.0014 µM
cells
  IC50: 0.0032 µM
HeLa [4]
  IC50: 0.0016 µM
HeLa [5]
  IC50: 0.0013 µM

## COc1ccc(/C=C\c2cc(OC)c(OC)c(OC)c2)cc1O
Tubulin (Homo sapiens) [40]
  Ka: 3 10^8/M

## CC[C@]1(O)C[C@@H]2CN(CCc3c([nH]c4ccccc34)[C@@](C(=O)OC)(c3cc4c(cc3OC)N(C)[C@H]3[C@@](O)(C(=O)OC)[C@H](OC(C)=O)[C@]5(CC)C=CCN6CC[C@]43[C@@H]65)C2)C1 [VINBLASTINE]
A549 [2]
  IC50: 0.0015 µM
A2780 [3]
  IC50: 0.0015 µM
cells
  IC50: 0.07 µM
HeLa [4]
  IC50: 0.00054 µM
HeLa [5]
  IC50: 0.0044 µM

## COc1cc([C@@H]2c3cc4c(cc3[C@H](O)[C@H]3COC(=O)[C@H]23)OCO4)cc(OC)c1OC [PODOFILOX]
A549 [2]
  IC50: 0.016 µM
cells
  IC50: 0.02 µM
HeLa [4]
  IC50: 0.0155 µM
HeLa [5]
  IC50: 0.018 µM

## COc1cc2cc(c1Cl)N(C)C(=O)C[C@H](OC(=O)[C@H](C)N(C)C(C)=O)[C@]1(C)O[C@H]1[C@H](C)[C@@H]1C[C@@](O)(NC(=O)O1)[C@H](OC)/C=C/C=C(\C)C2 [MAYTANSINE]
A549 [2]
  IC50: 0.00059 µM
A2780 [3]
  IC50: 0.00074 µM
cells
  IC50: 0.019 µM
HeLa [4]
  IC50: 0.00033 µM
HeLa [5]
  IC50: 0.0011 µM
